Results published in BindingDB's records for patent US12065436 (Cytokinetics, 2024).

What follows are molecules tested against T1, Myosin-7 (Bos taurus, UniProt Q9BE39) (assay: Myofibril Assays).
T1 construct: gene MYH7
Protocol: To evaluate the effect of compounds on the ATPase activity of full-length cardiac myosin in the context of the native sarcomere, skinned myofibril assays were performed. Bovine cardiac myofibrils were obtained by homogenizing bovine cardiac left ventricular tissue in the presence of a detergent such as triton X-100. Such treatment removes membranes and a majority of the soluble cytoplasmic proteins but leaves intact the cardiac sarcomeric acto-myosin apparatus. Myofibril preparations retain the ability to hydrolyze ATP in an Ca2+ regulated manner. […] Small molecule agents were assessed for their ability to inhibit the steady-state ATPase activity of bovine cardiac myofibrils using pyruvate kinase and lactate dehydrogenase (PK/LDH)-coupled enzyme system. This assay regenerates myosin-produced ADP into ATP by oxidizing NADH, producing an absorbance change at 340 nm.

T1 sequence (Q9BE39 whole entry, looked up): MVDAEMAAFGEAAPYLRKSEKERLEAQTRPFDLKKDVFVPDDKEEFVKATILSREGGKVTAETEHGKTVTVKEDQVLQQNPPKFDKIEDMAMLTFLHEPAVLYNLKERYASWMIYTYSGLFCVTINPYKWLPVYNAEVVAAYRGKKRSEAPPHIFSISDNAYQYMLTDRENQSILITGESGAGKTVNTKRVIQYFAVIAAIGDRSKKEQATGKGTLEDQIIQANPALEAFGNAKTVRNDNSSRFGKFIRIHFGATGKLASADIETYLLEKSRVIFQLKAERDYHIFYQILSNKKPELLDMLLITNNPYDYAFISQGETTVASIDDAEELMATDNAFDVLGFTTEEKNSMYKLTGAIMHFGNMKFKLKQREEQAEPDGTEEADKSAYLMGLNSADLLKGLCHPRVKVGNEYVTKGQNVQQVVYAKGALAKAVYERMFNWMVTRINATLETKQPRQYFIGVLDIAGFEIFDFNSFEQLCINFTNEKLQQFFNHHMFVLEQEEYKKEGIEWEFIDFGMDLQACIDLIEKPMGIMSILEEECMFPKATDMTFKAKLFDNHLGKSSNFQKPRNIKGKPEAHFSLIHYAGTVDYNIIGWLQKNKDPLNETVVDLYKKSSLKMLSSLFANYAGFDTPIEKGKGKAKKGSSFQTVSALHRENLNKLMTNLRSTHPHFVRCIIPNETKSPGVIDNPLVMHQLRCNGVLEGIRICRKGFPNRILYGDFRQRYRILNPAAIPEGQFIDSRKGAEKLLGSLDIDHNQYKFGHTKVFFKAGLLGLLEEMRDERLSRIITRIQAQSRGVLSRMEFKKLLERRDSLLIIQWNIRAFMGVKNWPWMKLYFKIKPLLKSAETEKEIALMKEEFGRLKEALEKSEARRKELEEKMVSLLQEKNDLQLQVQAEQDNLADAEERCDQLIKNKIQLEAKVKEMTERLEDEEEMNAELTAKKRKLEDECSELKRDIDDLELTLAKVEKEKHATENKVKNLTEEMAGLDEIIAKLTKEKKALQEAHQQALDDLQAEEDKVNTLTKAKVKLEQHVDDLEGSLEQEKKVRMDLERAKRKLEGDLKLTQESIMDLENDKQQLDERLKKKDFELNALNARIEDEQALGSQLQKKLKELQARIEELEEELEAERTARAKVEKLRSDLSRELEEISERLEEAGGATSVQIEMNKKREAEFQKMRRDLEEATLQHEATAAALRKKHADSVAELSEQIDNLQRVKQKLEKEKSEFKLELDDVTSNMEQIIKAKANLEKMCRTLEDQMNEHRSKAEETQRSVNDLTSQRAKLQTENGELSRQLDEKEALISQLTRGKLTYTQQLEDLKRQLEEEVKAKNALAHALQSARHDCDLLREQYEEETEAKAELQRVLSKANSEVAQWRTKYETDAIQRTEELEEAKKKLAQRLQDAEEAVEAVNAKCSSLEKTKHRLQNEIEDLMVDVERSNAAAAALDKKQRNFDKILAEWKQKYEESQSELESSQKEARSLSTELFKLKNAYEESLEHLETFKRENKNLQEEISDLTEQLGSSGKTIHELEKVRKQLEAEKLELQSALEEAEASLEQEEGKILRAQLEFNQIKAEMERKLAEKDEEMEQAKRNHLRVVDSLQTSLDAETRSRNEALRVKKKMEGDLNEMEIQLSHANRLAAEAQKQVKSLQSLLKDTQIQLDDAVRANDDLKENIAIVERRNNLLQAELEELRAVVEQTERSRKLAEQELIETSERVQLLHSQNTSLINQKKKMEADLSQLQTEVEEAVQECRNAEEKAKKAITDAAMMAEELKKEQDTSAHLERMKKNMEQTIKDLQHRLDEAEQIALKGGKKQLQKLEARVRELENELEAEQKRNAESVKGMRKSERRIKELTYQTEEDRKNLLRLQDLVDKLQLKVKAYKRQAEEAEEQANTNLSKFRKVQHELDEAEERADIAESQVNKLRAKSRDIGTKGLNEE

SMILES | IC50
CCc1nc(-c2ccc3c(c2)CC[C@H]3NC(=O)c2cnn(C3CN(C(=O)OC)C3)c2)no1 [US12065436, Compound 480] | 39.2 µM
Cc1cc(C(=O)NC2CCc3cc(-c4noc(C(F)F)n4)ccc32)on1 (stereo not given) [US12065436, Compound 102] | 5.8 µM
COCc1nc(-c2ccc3c(c2)CC[C@H]3NC(=O)c2cnc(C)n2C)no1 [US12065436, Compound 691] | 5.8 µM
Cc1nc(-c2ccc3c(c2)CCC3NC(=O)Nc2cnccn2)no1 (stereo not given) [US12065436, Compound 86] | 14.9 µM
CCc1cc(-c2ccc3c(c2)CC[C@H]3NC(=O)OC)no1 [US12065436, Compound 345] | 0.8 µM

Now from value to molecule:

IC50 | SMILES
2.2 µM | Cc1cnoc1C(=O)NC1CCc2cc(-c3noc(C(F)F)n3)ccc21 (stereo not given) [US12065436, Compound 103]
7.1 µM | CCc1nc(-c2ccc3c(c2)CC[C@H]3NC(=O)c2cnn(C3CN(C(=O)OC(C)(C)C)C3)c2)no1 [US12065436, Compound 471]
0.9 µM | Cc1cnoc1C(=O)N[C@@H]1CCc2cc(-c3noc(C(F)F)n3)ccc21 [US12065436, Compound 93]
3.2 µM | Cn1cc(C(=O)N[C@@H]2CCc3cc(-c4noc(C5CCC5)n4)ccc32)cn1 [US12065436, Compound 411]
9.3 µM | O=C(N[C@@H]1CCc2cc(-c3noc(C4CC4)n3)ccc21)C1CC1 [US12065436, Compound 318]
